Assay results taken from article PMC9775191, “A Subset Screen of the Compounds Australia Scaffold Library Identifies 7-Acylaminodibenzoxazepinones as Potent and Selective Hits for Anti-Giardia Drug Discovery” (Biomedicines, 2022).

system: G. duodenalis BRIS/91/HEPU/1279; test: Primary Giardia screen at 10 µM (live-cell imaging, automated counting); assay type: cell-based, Giardia duodenalis; conditions: 48 h
Procedure, shortened: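 Percent growth versus 0.2% DMSO vehicle, background-corrected with media-only wells, is reported at 24 and 48 h from automated live-cell counts. Testing used 10 μM final in a 3% O2 atmosphere, with plate quality checked by Z' factor.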

Compound | Average % Inhibition 48h [%]
CC1CCN(C(=O)c2oc3ccccc3c2NC(=O)c2ccc([N+](=O)[O-])o2)CC1 [SN00788467] | > 90

same assay, conditions: Giardia duodenalis, 24 h, first singlicate assay, read-out: % Inhibition n=1 24h

Compound | inhibition at 10 µM [%]
Cc1ccc(-n2c(=O)c3c(cnn3C)n(CC(=O)Nc3ccccc3C)c2=O)cc1 [SN00784346, Cc1ccc(cc1)n1c(=O)n(CC(=O)Nc2ccccc2C)c2cnn(C)c2c1=O] | 52
Nc1c(-c2nc(-c3ccccc3)cs2)c2ccccn2c1C(=O)c1ccc2c(c1)OCO2 [SN00785732, O=C(c1ccc2OCOc2c1)c1c(N)c(c2scc(n2)c2ccccc2)c2ccccn12] | 64.4
CC1CCN(C(=O)c2oc3ccccc3c2NC(=O)c2ccc([N+](=O)[O-])o2)CC1 [SN00788467] | 93.2

same assay, conditions: Giardia duodenalis, 24 h, re-assessment, read-out: % Inhibition n=2 24h

Compound | inhibition at 10 µM [%]
Cc1ccc(-n2c(=O)c3c(cnn3C)n(CC(=O)Nc3ccccc3C)c2=O)cc1 [SN00784346, Cc1ccc(cc1)n1c(=O)n(CC(=O)Nc2ccccc2C)c2cnn(C)c2c1=O] | 55.8
Nc1c(-c2nc(-c3ccccc3)cs2)c2ccccn2c1C(=O)c1ccc2c(c1)OCO2 [SN00785732, O=C(c1ccc2OCOc2c1)c1c(N)c(c2scc(n2)c2ccccc2)c2ccccn12] | 62
CC1CCN(C(=O)c2oc3ccccc3c2NC(=O)c2ccc([N+](=O)[O-])o2)CC1 [SN00788467] | 82.3

same assay, conditions: Giardia duodenalis, 24 h, read-out: Average % Inhibition 24h

Compound | inhibition at 10 µM [%]
Cc1ccc(-n2c(=O)c3c(cnn3C)n(CC(=O)Nc3ccccc3C)c2=O)cc1 [SN00784346, Cc1ccc(cc1)n1c(=O)n(CC(=O)Nc2ccccc2C)c2cnn(C)c2c1=O] | 53.9
Nc1c(-c2nc(-c3ccccc3)cs2)c2ccccn2c1C(=O)c1ccc2c(c1)OCO2 [SN00785732, O=C(c1ccc2OCOc2c1)c1c(N)c(c2scc(n2)c2ccccc2)c2ccccn12] | 63.2
CC1CCN(C(=O)c2oc3ccccc3c2NC(=O)c2ccc([N+](=O)[O-])o2)CC1 [SN00788467] | 87.7

same assay, conditions: Giardia duodenalis, 48 h, first singlicate assay, read-out: % Inhibition n=1 48h

Compound | inhibition at 10 µM [%]
Cc1ccc(-n2c(=O)c3c(cnn3C)n(CC(=O)Nc3ccccc3C)c2=O)cc1 [SN00784346, Cc1ccc(cc1)n1c(=O)n(CC(=O)Nc2ccccc2C)c2cnn(C)c2c1=O] | 77.6
Nc1c(-c2nc(-c3ccccc3)cs2)c2ccccn2c1C(=O)c1ccc2c(c1)OCO2 [SN00785732, O=C(c1ccc2OCOc2c1)c1c(N)c(c2scc(n2)c2ccccc2)c2ccccn12] | 82.4
CC1CCN(C(=O)c2oc3ccccc3c2NC(=O)c2ccc([N+](=O)[O-])o2)CC1 [SN00788467] | 93.9

same assay, conditions: Giardia duodenalis, 48 h, re-assessment, read-out: % Inhibition n=2 48h

Compound | inhibition at 10 µM [%]
Cc1ccc(-n2c(=O)c3c(cnn3C)n(CC(=O)Nc3ccccc3C)c2=O)cc1 [SN00784346, Cc1ccc(cc1)n1c(=O)n(CC(=O)Nc2ccccc2C)c2cnn(C)c2c1=O] | 76.3
Nc1c(-c2nc(-c3ccccc3)cs2)c2ccccn2c1C(=O)c1ccc2c(c1)OCO2 [SN00785732, O=C(c1ccc2OCOc2c1)c1c(N)c(c2scc(n2)c2ccccc2)c2ccccn12] | 83.8
CC1CCN(C(=O)c2oc3ccccc3c2NC(=O)c2ccc([N+](=O)[O-])o2)CC1 [SN00788467] | 96.4

same assay, conditions: Giardia duodenalis, 48 h, read-out: Average % Inhibition 48h

Compound | inhibition at 10 µM [%]
Cc1ccc(-n2c(=O)c3c(cnn3C)n(CC(=O)Nc3ccccc3C)c2=O)cc1 [SN00784346, Cc1ccc(cc1)n1c(=O)n(CC(=O)Nc2ccccc2C)c2cnn(C)c2c1=O] | 76.9
Nc1c(-c2nc(-c3ccccc3)cs2)c2ccccn2c1C(=O)c1ccc2c(c1)OCO2 [SN00785732, O=C(c1ccc2OCOc2c1)c1c(N)c(c2scc(n2)c2ccccc2)c2ccccn12] | 83.1
CC1CCN(C(=O)c2oc3ccccc3c2NC(=O)c2ccc([N+](=O)[O-])o2)CC1 [SN00788467] | 95.2

system: G. duodenalis BRIS/91/HEPU/1279; test: Giardia dose response assay, assemblage B; assay type: cell-based, Giardia duodenalis; conditions: 48 h IC50
Protocol: In these assays, compounds were serially diluted (8–12-point doubling dilutions in technical duplicate) in DMSO control media, with all test wells inoculated with parasites (1.5 × 10^4 parasites for BRIS/91/HEPU/1279 and BRIS/91/HEPU/1279m1, or 3 × 10^3 parasites for BRIS/87/HEPU/713). […] All plates were sealed in culture chambers and gassed with 3% O2, 5% CO2 in N2 and incubated at 37 °C for 48 h, with parasites imaged and enumerated at 24 and 48 h. Growth inhibition was calculated as a percentage relative to vehicle controls minus any background as described above and IC50 values were determined using log-linear interpolation as previously described. […] Statistical comparison of IC50 values when required were performed using Student’s t-test.

Compound | fold more potent than metronidazole [fold]
CC1CCN(C(=O)c2oc3ccccc3c2NC(=O)c2ccc([N+](=O)[O-])o2)CC1 [SN00788467] | > 45

same assay, conditions: Giardia duodenalis, 24 h, read-out: G. duodenalis IC50 24h, Table S2; 24 h; ±SD; max 10 µM

Compound | IC50 [µM]
Cc1ccc(-n2c(=O)c3c(cnn3C)n(CC(=O)Nc3ccccc3C)c2=O)cc1 [SN00784346, Cc1ccc(cc1)n1c(=O)n(CC(=O)Nc2ccccc2C)c2cnn(C)c2c1=O] | > 10
Nc1c(-c2nc(-c3ccccc3)cs2)c2ccccn2c1C(=O)c1ccc2c(c1)OCO2 [SN00785732, O=C(c1ccc2OCOc2c1)c1c(N)c(c2scc(n2)c2ccccc2)c2ccccn12] | 7.64
CC1CCN(C(=O)c2oc3ccccc3c2NC(=O)c2ccc([N+](=O)[O-])o2)CC1 [SN00788467] | 0.24 ± 0.04

same assay, conditions: Giardia duodenalis, 48 h, BRIS/91/HEPU/1279; 48 h; mean ± SD; read-out: IC50 Giardia (48 h)

Compound | IC50 [µM]
CC1CCN(C(=O)c2oc3ccccc3c2NC(=O)c2ccc([N+](=O)[O-])o2)CC1 [SN00788467] | 0.06

same assay, conditions: Giardia duodenalis, 48 h, Table S2; 48 h; ±SD; max 10 µM; read-out: G. duodenalis IC50 48h

Compound | IC50 [µM]
Cc1ccc(-n2c(=O)c3c(cnn3C)n(CC(=O)Nc3ccccc3C)c2=O)cc1 [SN00784346, Cc1ccc(cc1)n1c(=O)n(CC(=O)Nc2ccccc2C)c2cnn(C)c2c1=O] | 7.66
Nc1c(-c2nc(-c3ccccc3)cs2)c2ccccn2c1C(=O)c1ccc2c(c1)OCO2 [SN00785732, O=C(c1ccc2OCOc2c1)c1c(N)c(c2scc(n2)c2ccccc2)c2ccccn12] | 7.68

system: Neonatal foreskin fibroblast (NFF) cells; test: Mammalian cell cytotoxicity assay (sulforhodamine B); assay type: cell-based, human; conditions: Homo sapiens, NFF, mean ± SD; read-out: IC50 NFF
Protocol: The selectivity of compounds of interest was assessed against NFF cells. Assays were performed using sulforhodamine B and included media only, negative (no compound, no DMSO), and vehicle (DMSO) controls as previously described. A chloroquine control plate was included in each assay. […] Repurchased SN00797640 was tested in dose–response from 100 µM against NFF. Selectivity indices (SI) were calculated by dividing mammalian cell IC50 values by G. duodenalis BRIS/91/HEPU/1279 IC50 values.

Compound | IC50 [µM]
CC1CCN(C(=O)c2oc3ccccc3c2NC(=O)c2ccc([N+](=O)[O-])o2)CC1 [SN00788467] | > 10

same assay, conditions: Homo sapiens, NFF; 20 µM; ±SD

Compound | inhibition at 20 µM [%]
Cc1ccc(-n2c(=O)c3c(cnn3C)n(CC(=O)Nc3ccccc3C)c2=O)cc1 [SN00784346, Cc1ccc(cc1)n1c(=O)n(CC(=O)Nc2ccccc2C)c2cnn(C)c2c1=O] | -1.1 ± 0.8
Nc1c(-c2nc(-c3ccccc3)cs2)c2ccccn2c1C(=O)c1ccc2c(c1)OCO2 [SN00785732, O=C(c1ccc2OCOc2c1)c1c(N)c(c2scc(n2)c2ccccc2)c2ccccn12] | 41.6 ± 2.7

same assay, conditions: NFF IC50 divided by G. duodenalis BRIS/91/HEPU/1279 IC50

Compound | Selectivity
CC1CCN(C(=O)c2oc3ccccc3c2NC(=O)c2ccc([N+](=O)[O-])o2)CC1 [SN00788467] | >166

same assay, conditions: Table S2; NFF vs 48 h Giardia IC50

Compound | SI (48h Gd)
Cc1ccc(-n2c(=O)c3c(cnn3C)n(CC(=O)Nc3ccccc3C)c2=O)cc1 [SN00784346, Cc1ccc(cc1)n1c(=O)n(CC(=O)Nc2ccccc2C)c2cnn(C)c2c1=O] | > 2
Nc1c(-c2nc(-c3ccccc3)cs2)c2ccccn2c1C(=O)c1ccc2c(c1)OCO2 [SN00785732, O=C(c1ccc2OCOc2c1)c1c(N)c(c2scc(n2)c2ccccc2)c2ccccn12] | > 2
CC1CCN(C(=O)c2oc3ccccc3c2NC(=O)c2ccc([N+](=O)[O-])o2)CC1 [SN00788467] | > 166

system: Acinetobacter baumannii (ATCC 19606); test: Anti-bacterial activity assay; assay type: cell-based; conditions: ATCC19606, 50 µM
Protocol: (§1) The activity of compounds against methicillin resistant Staphylococcus aureus (ATCC 43300), Escherichia coli (ATCC 25922), Acinetobacter baumannii (ATCC 19606) and Klebsiella pneumoniae (ATCC 700603) was assessed at 50 µM in duplicate as previously described. In brief, mid-log phase bacteria cultures were added to 384-well microtiter plate wells containing compound to final cell density of 5 × 10^5 CFU/mL in 50 µL. Plates were then covered and incubated at 37 °C for 18 h without shaking. Inhibition of bacterial growth was determined by measuring absorbance at 600 nm (Tecan M1000 Pro monochromator plate reader) and calculating percentage growth inhibition relative to the negative media and bacteria without inhibitors. Vancomycin hydrochloride (Sigma-Aldrich an affiliate of Merck KGaA, Darmstadt, Germany, #861987) and colistin sulfate (Sigma-Aldrich an affiliate of Merck KGaA, Darmstadt, Germany, C4461) were on each plate as positive controls for Gram-positive (S. aureus) and Gram-negative (E. coli, A. baumannii and K. pneumoniae) bacteria, respectively.

Compound | inhibition at 50 µM [%]
Cc1ccc(-n2c(=O)c3c(cnn3C)n(CC(=O)Nc3ccccc3C)c2=O)cc1 [SN00784346, Cc1ccc(cc1)n1c(=O)n(CC(=O)Nc2ccccc2C)c2cnn(C)c2c1=O] | 0.24
Nc1c(-c2nc(-c3ccccc3)cs2)c2ccccn2c1C(=O)c1ccc2c(c1)OCO2 [SN00785732, O=C(c1ccc2OCOc2c1)c1c(N)c(c2scc(n2)c2ccccc2)c2ccccn12] | 9.69
CC1CCN(C(=O)c2oc3ccccc3c2NC(=O)c2ccc([N+](=O)[O-])o2)CC1 [SN00788467] | 3.19

system: Klebsiella pneumoniae (ATCC 700603); test: Anti-bacterial activity assay; assay type: cell-based; conditions: ATCC700603, 50 µM, read-out: Bacterial Inhibition K. pneumoniae
Protocol: as §1

Compound | inhibition at 50 µM [%]
Cc1ccc(-n2c(=O)c3c(cnn3C)n(CC(=O)Nc3ccccc3C)c2=O)cc1 [SN00784346, Cc1ccc(cc1)n1c(=O)n(CC(=O)Nc2ccccc2C)c2cnn(C)c2c1=O] | -2.01
Nc1c(-c2nc(-c3ccccc3)cs2)c2ccccn2c1C(=O)c1ccc2c(c1)OCO2 [SN00785732, O=C(c1ccc2OCOc2c1)c1c(N)c(c2scc(n2)c2ccccc2)c2ccccn12] | 9.49
CC1CCN(C(=O)c2oc3ccccc3c2NC(=O)c2ccc([N+](=O)[O-])o2)CC1 [SN00788467] | -1.21

system: Escherichia coli (ATCC 25922); test: Anti-bacterial activity assay; assay type: cell-based; conditions: E. coli, A. baumannii and K. pneumoniae / bacteria, Table S2
Protocol: as §1

Compound | selectivity index over bacteria
CC1CCN(C(=O)c2oc3ccccc3c2NC(=O)c2ccc([N+](=O)[O-])o2)CC1 [SN00788467] | > 800

same assay, conditions: Escherichia coli, ATCC25922, 50 µM; read-out: Bacterial Inhibition E. coli

Compound | inhibition at 50 µM [%]
Cc1ccc(-n2c(=O)c3c(cnn3C)n(CC(=O)Nc3ccccc3C)c2=O)cc1 [SN00784346, Cc1ccc(cc1)n1c(=O)n(CC(=O)Nc2ccccc2C)c2cnn(C)c2c1=O] | 3.09
Nc1c(-c2nc(-c3ccccc3)cs2)c2ccccn2c1C(=O)c1ccc2c(c1)OCO2 [SN00785732, O=C(c1ccc2OCOc2c1)c1c(N)c(c2scc(n2)c2ccccc2)c2ccccn12] | 0.23
CC1CCN(C(=O)c2oc3ccccc3c2NC(=O)c2ccc([N+](=O)[O-])o2)CC1 [SN00788467] | 3.73

system: methicillin resistant Staphylococcus aureus (ATCC 43300); test: Anti-bacterial activity assay; assay type: cell-based; conditions: 50 µM
Protocol: as §1

Compound | Bacterial Inhibition S. aureus [%]
CC1CCN(C(=O)c2oc3ccccc3c2NC(=O)c2ccc([N+](=O)[O-])o2)CC1 [SN00788467] | 99

same assay, conditions: Staphylococcus aureus, ATCC43300, 50 µM; read-out: Bacterial Inhibition S. aureus

Compound | inhibition at 50 µM [%]
Cc1ccc(-n2c(=O)c3c(cnn3C)n(CC(=O)Nc3ccccc3C)c2=O)cc1 [SN00784346, Cc1ccc(cc1)n1c(=O)n(CC(=O)Nc2ccccc2C)c2cnn(C)c2c1=O] | 5.68
Nc1c(-c2nc(-c3ccccc3)cs2)c2ccccn2c1C(=O)c1ccc2c(c1)OCO2 [SN00785732, O=C(c1ccc2OCOc2c1)c1c(N)c(c2scc(n2)c2ccccc2)c2ccccn12] | 2.41
CC1CCN(C(=O)c2oc3ccccc3c2NC(=O)c2ccc([N+](=O)[O-])o2)CC1 [SN00788467] | 99.1
